One series relates to M. tuberculosis H37Rv. Briefly: MIC against replicating M. tuberculosis H37Rv, microplate Alamar blue assay (MABA). The series is classed as cell-based. Background: Alamar Blue is a resazurin reagent that responds to reducing activity.
A further series has as its system Vero cells. Briefly: Cytotoxicity assay in Vero cells (MTT). The series is classed as cell-based. The settings on record: for IC50: Chlorocebus sabaeus, Vero cells, 48 h, read-out: IC50 (Vero).
[1] abbreviates: Mycobacterium tuberculosis, H37RV, against M. tuberculosis H37Rv, Tables 1-3, read-out: MIC.
The mark [2] stands for this setting: Mycobacterium tuberculosis, H37RV, supplementary CSV, same values as Tables 1-3, read-out: Minimal inhibit concentration.
[3] abbreviates: against M. tuberculosis H37Rv, Tables 1-3.

≈ marks a conversion by molar mass, not a printed value. Like-named read-outs stand apart in the source and are kept apart here.

What is called IC50 is the point on the concentration scale where inhibition reaches its midpoint. As usually defined, the melting point is the temperature of the solid-liquid transition. In turn, `CCCNC(=O)c1ccc(C(=O)Nc2sccc2C(=O)NC(=O)OCC)cc1` [Compound 23a, Ethyl (2-(4-(Propylcarbamoyl)benzamido)thiophene-3-carbonyl)carbamate] displayed a melting point of 219 to 220 °C. The MIC with M. tuberculosis H37Rv (setting [1]) was 0.2 µg/mL (≈ 0.496 µM). Further, the MIC in the series with M. tuberculosis H37Rv (setting [2]) is 0.2 µg/mL (≈ 0.496 µM). The compound also gave an MIC with M. tuberculosis H37Rv (setting [3]) of 0.20 µg/mL (≈ 0.496 µM). Also, in the series with Vero cells, the SI is greater than 320 and the IC50 is greater than 64 µg/mL.
With `CCOC(=O)NC(=O)c1ccsc1NC(=O)c1ccc(C(=O)N(C)CC)cc1` [Compound 23b, Ethyl (2-(4-(Ethyl(methyl)carbamoyl)benzamido)thiophene-3-carbonyl)carbamate], the melting point was 161 to 162 °C. The MIC with M. tuberculosis H37Rv (setting [1]) stood at 0.95 µg/mL (≈ 2.35 µM). Moreover, the MIC in the series on M. tuberculosis H37Rv (setting [2]) worked out at 0.95 µg/mL (≈ 2.35 µM). In addition, in the series with Vero cells, the SI is greater than 67 and the IC50 is greater than 64 µg/mL.
`CCOC(=O)NC(=O)c1ccsc1NC(=O)c1ccc(C(=O)N(CC)CC)cc1` [Compound 23c, Ethyl (2-(4-(Diethylcarbamoyl)benzamido)thiophene-3-carbonyl)carbamate]: the melting point is 178 to 179 °C. For the same compound, the MIC in the series with M. tuberculosis H37Rv (setting [1]) is 0.28 µg/mL (≈ 0.671 µM). Also, in the series with M. tuberculosis H37Rv (setting [2]), the MIC was 0.28 µg/mL (≈ 0.671 µM). Moreover, in the series with Vero cells, the SI is reported as greater than 229 and the IC50 was greater than 64 µg/mL.
In the case of `CCOC(=O)NC(=O)c1ccsc1NC(=O)c1ccc(C(=O)NC23CC4CC(CC(C4)C2)C3)cc1` [Compound 23d, Ethyl (2-(4-(((3S,5S,7S)-Adamantan-1-yl)carbamoyl)benzamido)thiophene-3-carbonyl)carbamate], the melting point lay within 157 to 158 °C. The MIC with M. tuberculosis H37Rv (setting [1]) was determined as 0.12 µg/mL (≈ 0.242 µM). Further, the MIC in the series on M. tuberculosis H37Rv (setting [2]) is 0.12 µg/mL (≈ 0.242 µM). Besides, in the series with Vero cells, the SI came out at 16 and the IC50 worked out at 1.96 µg/mL (≈ 3.95 µM).
For `CCOC(=O)NC(=O)c1ccsc1NC(=O)c1ccc(C(=O)N2CCCC2)cc1` [Compound 23i, Ethyl (2-(4-(Pyrrolidine-1-carbonyl)benzamido)thiophene-3-carbonyl)carbamate], the MIC in the series with M. tuberculosis H37Rv (setting [1]) and with M. tuberculosis H37Rv (setting [2]) was 0.2 µg/mL (≈ 0.481 µM) throughout. Moreover, the 50% inhibitory concentration (IC50) in the series with Vero cells is greater than 64 µg/mL.
As for `CCOC(=O)NC(=O)c1ccsc1NC(=O)c1ccc(C(=O)N2CCCCCC2)cc1` [Compound 23k, Ethyl (2-(4-(Azepane-1-carbonyl)benzamido)thiophene-3-carbonyl)carbamate], the MIC in the series on M. tuberculosis H37Rv (setting [1]) and in the series on M. tuberculosis H37Rv (setting [2]) was 0.22 µg/mL (≈ 0.496 µM) each time. For the same compound, in the series with Vero cells, the IC50 amounted to 48.4 µg/mL (≈ 109 µM).
In the case of `CCOC(=O)NC(=O)c1ccsc1NC(=O)c1ccc(C(=O)N2CCC(C)CC2)cc1` [Compound 23l, Ethyl (2-(4-(4-Methylpiperidine-1-carbonyl)benzamido)thiophene-3-carbonyl)carbamate], the MIC with M. tuberculosis H37Rv (setting [1]) and in the series on M. tuberculosis H37Rv (setting [2]) was 0.03 µg/mL (≈ 0.0676 µM) each time. In addition, the IC50 in the series on Vero cells is greater than 64 µg/mL.
As to `CCOC(=O)NC(=O)c1ccsc1NC(=O)c1ccc(C(=O)N2CCC(F)(F)CC2)cc1` [Compound 23n, Ethyl (2-(4-(4,4-Difluoropiperidine-1-carbonyl)benzamido)thiophene-3-carbonyl)carbamate], the MIC in the series with M. tuberculosis H37Rv (setting [1]) and with M. tuberculosis H37Rv (setting [2]) was 0.25 µg/mL (≈ 0.537 µM) in each case. Further, the IC50 with Vero cells was greater than 64 µg/mL.
Take `CCOC(=O)NC(=O)c1ccsc1NC(=O)c1ccc(C(=O)N2CCOCC2)cc1` [Compound 23o, Ethyl (2-(4-(Morpholine-4-carbonyl)benzamido)thiophene-3-carbonyl)carbamate]: the melting point was in the range of 159 to 160 °C. The MIC with M. tuberculosis H37Rv (setting [1]) was 1.66 µg/mL (≈ 3.85 µM). For the same compound, the MIC with M. tuberculosis H37Rv (setting [2]) stood at 1.66 µg/mL (≈ 3.85 µM).
Regarding `CCOC(=O)NC(=O)c1ccsc1NC(=O)c1cccc(C(=O)N2CCCCC2)c1` [Compound 24a, Ethyl (2-(3-(Piperidine-1-carbonyl)benzamido)thiophene-3-carbonyl)carbamate], the MIC in the series on M. tuberculosis H37Rv (setting [1]) and in the series with M. tuberculosis H37Rv (setting [2]) was 3.7 µg/mL (≈ 8.61 µM) throughout.
`CCOC(=O)NC(=O)c1ccsc1NC(=O)c1ccc(C(=O)N2CCCCC2)cc1F` [Compound 24b, Ethyl (2-(2-Fluoro-4-(piperidine-1-carbonyl)benzamido)thiophene-3-carbonyl)carbamate]: the MIC in the series on M. tuberculosis H37Rv (setting [1]) and in the series with M. tuberculosis H37Rv (setting [2]) was 0.12 µg/mL (≈ 0.268 µM) each time. For the same compound, the IC50 in the series on Vero cells is greater than 64 µg/mL.
`CCOC(=O)NC(=O)c1ccsc1NC(=O)c1ccc(C(=O)N2CCCCC2)c(C)c1` [Compound 24g, Ethyl (2-(3-Methyl-4-(piperidine-1-carbonyl)benzamido)thiophene-3-carbonyl)carbamate]: the MIC worked out at 0.12 µg/mL (≈ 0.271 µM) against M. tuberculosis H37Rv (Mycobacterium tuberculosis, H37RV, against M. tuberculosis H37Rv, Tables 1-3) and 0.12 µg/mL (≈ 0.271 µM) with M. tuberculosis H37Rv (setting [2]). Besides, in the series on Vero cells, the IC50 amounted to 53.1 µg/mL (≈ 120 µM).
The compound `CCOC(=O)NC(=O)c1ccsc1NC(=O)c1ccc2cc(C(=O)N3CCCCC3)ccc2c1` [Compound 24h, Ethyl (2-(6-(Piperidine-1-carbonyl)-2-naphthamido)thiophene-3-carbonyl)carbamate] yielded a melting point of 177 to 178 °C. For the same compound, in the series on M. tuberculosis H37Rv (setting [1]), the MIC was 3.13 µg/mL (≈ 6.53 µM). Moreover, the MIC with M. tuberculosis H37Rv (setting [2]) was 3.13 µg/mL (≈ 6.53 µM).
For `CCOC(=O)NC(=O)c1ccsc1NC(=O)c1ccc(-c2ccc(C(=O)N3CCCCC3)cc2)cc1` [Compound 24i, Ethyl (2-(4′-(Piperidine-1-carbonyl)-[1,1′-biphenyl]-4-carboxamido)thiophene-3-carbonyl)carbamate], the MIC in the series on M. tuberculosis H37Rv (setting [1]) and with M. tuberculosis H37Rv (setting [2]) was 7.76 µg/mL (≈ 15.3 µM) in each case.
Regarding `CCOC(=O)NC(=O)c1ccsc1NC(=O)c1cc(C(=O)N2CCCCC2)c[nH]1` [Compound 24l, Ethyl (2-(4-(Piperidine-1-carbonyl)-1H-pyrrole-2-carboxamido)thiophene-3-carbonyl)carbamate], the melting point was in the range of 183 to 184 °C. In the series with M. tuberculosis H37Rv (setting [1]), the MIC was 1.77 µg/mL (≈ 4.23 µM). Also, the MIC with M. tuberculosis H37Rv (setting [2]) came to 1.77 µg/mL (≈ 4.23 µM).
Turning to `CCNC(=O)NC(=O)c1ccsc1NC(=O)c1ccc(C(=O)N2CCCCC2)cc1` [Compound 25c, N-(Ethylcarbamoyl)-2-(4-(piperidine-1-carbonyl)benzamido)thiophene-3-carboxamide], the melting point lay in the range of 223 to 224 °C. Further, the MIC with M. tuberculosis H37Rv (setting [1]) was greater than 32 µg/mL. Besides, in the series on M. tuberculosis H37Rv (setting [2]), the MIC is greater than 32 µg/mL.
For `NC(=O)c1ccsc1NC(=O)c1ccc(C(=O)N2CCCCC2)cc1` [Compound 25d, 2-(4-(Piperidine-1-carbonyl)benzamido)thiophene-3-carboxamide], the MIC in the series on M. tuberculosis H37Rv (setting [1]) and with M. tuberculosis H37Rv (setting [2]) was greater than 32 µg/mL throughout.
As for `COC(=O)C1CN(C(=O)c2ccsc2NC(=O)c2ccc(C(=O)N3CCCCC3)cc2)C1` [Compound 25e, Methyl 1-(2-(4-(Piperidine-1-carbonyl)benzamido)thiophene-3-carbonyl)azetidine-3-carboxylate], the melting point fell in the range of 154 to 155 °C. The MIC with M. tuberculosis H37Rv (setting [1]) is greater than 32 µg/mL. The MIC in the series on M. tuberculosis H37Rv (setting [2]) is greater than 32 µg/mL.
Compound `COC(=O)C1CCN(C(=O)c2ccsc2NC(=O)c2ccc(C(=O)N3CCCCC3)cc2)CC1` [Compound 25f, Methyl 1-(2-(4-(Piperidine-1-carbonyl)benzamido)thiophene-3-carbonyl)piperidine-4-carboxylate] returned a melting point of 169 to 170 °C. Further, in the series on M. tuberculosis H37Rv (setting [1]), the MIC was found to be 15.5 µg/mL (≈ 32.1 µM). Also, the MIC in the series on M. tuberculosis H37Rv (setting [2]) came out at 15.5 µg/mL (≈ 32.1 µM).
For the compound `COC(=O)N1CCN(C(=O)c2ccsc2NC(=O)c2ccc(C(=O)N3CCCCC3)cc2)CC1` [Compound 25g, Methyl 4-(2-(4-(Piperidine-1-carbonyl)benzamido)thiophene-3-carbonyl)piperazine-1-carboxylate], the melting point fell in the range of 113 to 114 °C. The MIC in the series with M. tuberculosis H37Rv (setting [1]) was greater than 32 µg/mL. Further, the MIC in the series with M. tuberculosis H37Rv (setting [2]) was greater than 32 µg/mL.
Compound `CCOC(=O)N1CCN(C(=O)c2ccsc2NC(=O)c2ccc(C(=O)N3CCCCC3)cc2)CC1` [Compound 25h, Ethyl 4-(2-(4-(Piperidine-1-carbonyl)benzamido)thiophene-3-carbonyl)piperazine-1-carboxylate] showed a melting point of 134 to 135 °C. In addition, the MIC in the series with M. tuberculosis H37Rv (setting [1]) was greater than 32 µg/mL. Further, the MIC with M. tuberculosis H37Rv (setting [2]) was greater than 32 µg/mL.
On to `Cc1cnc(NC(=O)c2ccsc2NC(=O)c2ccc(C(=O)N3CCCCC3)cc2)s1` [Compound 25i, N-(5-Methylthiazol-2-yl)-2-(4-(piperidine-1-carbonyl)benzamido)thiophene-3-carboxamide], for which the melting point was in the range of 236 to 238 °C. In addition, the MIC with M. tuberculosis H37Rv (setting [1]) is greater than 32 µg/mL. In addition, the MIC in the series on M. tuberculosis H37Rv (setting [2]) was greater than 32 µg/mL.
Take `Cc1cnc(NC(=O)c2ccsc2NC(=O)c2ccc(C(=O)N3CCCCC3)cc2)cn1` [Compound 25m, N-(5-Methylpyrazin-2-yl)-2-(4-(piperidine-1-carbonyl)benzamido)thiophene-3-carboxamide]: the melting point was 177 to 179 °C. Besides, the MIC in the series on M. tuberculosis H37Rv (setting [1]) is greater than 32 µg/mL. The MIC with M. tuberculosis H37Rv (setting [2]) is greater than 32 µg/mL.
For the compound `Cc1cccc(NC(=O)c2ccsc2NC(=O)c2ccc(C(=O)N3CCCCC3)cc2)n1` [Compound 25n, N-(6-Methylpyridin-2-yl)-2-(4-(piperidine-1-carbonyl)benzamido)thiophene-3-carboxamide], the melting point lay in the range of 171 to 174 °C. Moreover, the MIC with M. tuberculosis H37Rv (setting [1]) is greater than 32 µg/mL. For the same compound, the MIC in the series with M. tuberculosis H37Rv (setting [2]) was greater than 32 µg/mL.
As to `Cc1cc(C)nc(NC(=O)c2ccsc2NC(=O)c2ccc(C(=O)N3CCCCC3)cc2)n1` [Compound 25p, N-(4,6-Dimethylpyrimidin-2-yl)-2-(4-(piperidine-1-carbonyl)benzamido)thiophene-3-carboxamide], the melting point fell in the range of 189 to 190 °C. Also, the MIC with M. tuberculosis H37Rv (setting [1]) was greater than 32 µg/mL. In addition, the MIC in the series with M. tuberculosis H37Rv (setting [2]) is greater than 32 µg/mL.
Compound `Cc1ccc2sc(NC(=O)c3ccsc3NC(=O)c3ccc(C(=O)N4CCCCC4)cc3)nc2c1` [Compound 25q, N-(5-Methylbenzo[d]thiazol-2-yl)-2-(4-(piperidine-1-carbonyl)benzamido)thiophene-3-carboxamide] showed a melting point greater than 250 °C. Besides, the MIC with M. tuberculosis H37Rv (setting [1]) is greater than 32 µg/mL. In the series with M. tuberculosis H37Rv (setting [2]), the MIC is greater than 32 µg/mL.
For the compound `COc1nc2ccc(Br)cc2cc1[C@@H](c1ccccc1)[C@@](O)(CCN(C)C)c1cccc2ccccc12` [bedaquiline, reference compound], the MIC in the series with M. tuberculosis H37Rv (Mycobacterium tuberculosis, H37RV, Table 4, read-out: MIC H37Rv) is 0.036 µg/mL (≈ 0.0648 µM).
“N-(4-Methylpyridin-2-yl)-2-(4-(piperidine-1-carbonyl)benzamido)thiophene-3-carboxamide [Compound 25o]”: the MIC with M. tuberculosis H37Rv (setting [3]) is greater than 32 µg/mL. Moreover, the Minimal inhibit concentration with M. tuberculosis H37Rv (supplementary CSV, same values as Tables 1-3) is greater than 32 µg/mL.

For the origin of these results see article PMC8154581, “Discovery of Novel Thiophene-arylamide Derivatives as DprE1 Inhibitors with Potent Antimycobacterial Activities” (Journal of Medicinal Chemistry, 2021).
